Molecular target: T1, HNEAA81 (Homo sapiens, UniProt Q9BPV8)
T1 construct: expressed in transfected cells; host or cells: HEK-293 (transient co-transfection)
T1 sequence (Q9BPV8 1-333 isoform Q9BPV8-2): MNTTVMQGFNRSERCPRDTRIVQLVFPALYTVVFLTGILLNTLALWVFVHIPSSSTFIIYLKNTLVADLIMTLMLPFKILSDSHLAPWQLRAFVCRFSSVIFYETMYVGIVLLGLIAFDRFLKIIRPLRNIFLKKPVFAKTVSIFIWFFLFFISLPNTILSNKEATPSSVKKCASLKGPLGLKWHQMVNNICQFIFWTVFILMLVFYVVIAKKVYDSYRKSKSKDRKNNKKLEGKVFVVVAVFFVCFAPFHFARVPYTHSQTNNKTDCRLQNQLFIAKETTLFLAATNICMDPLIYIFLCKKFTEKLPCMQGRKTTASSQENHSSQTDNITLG
Assay: FLIPR calcium mobilisation response in HEK-293 cells transiently co-transfected with HNEAA81 and G-proteins
Assay type: cell-based
Settings: for calcium mobilization response (in words): HEK-293 cells transfected with HNEAA81 and the G-proteins
Procedure: HEK-293 cells were transiently co-transfected with a mammalian expression plasmid encoding HNEAA81 polypeptide, along with cDNAs encoding either the promiscuous G-protein Gal6 or the chimeric G-proteins Gql5 or Gqo5and assayed on FLIPR (Fluorometric Imaging Plate Reader) for a calcium mobilisation response following addition of AP6A or AP5A or d-UDP.
A dose-dependent (EC50s ˜300 nM), calcium mobilization response was detected following addition of AP6A (response with AP5A or d-UDP not so strong) to cells transfected with HNEAA81 and the G-proteins. […] The cDNAs for both the receptor and the G-proteins had to be expressed in the HEK-293 in order to detect a functional response to these agonists.

SMILES | calcium mobilization response (in words) | EC50 (HEK-293 cells transfected with HNEAA81 and the G-proteins (Gal6 or Gql5 or Gqo5), read-out: EC50 of dose-dependent calcium mobilization response) [µM]
Nc1ncnc2c1ncn2C1OC(COP(=O)(O)OP(=O)(O)OP(=O)(O)OP(=O)(O)OP(=O)(O)OCC2OC(n3cnc4c(N)ncnc43)C(O)C2O)C(O)C1O (stereo not shown) [AP5A, di-adenosine pentaphosphate] | not so strong | 
Nc1ncnc2c1ncn2C1OC(COP(=O)(O)OP(=O)(O)OP(=O)(O)OP(=O)(O)OP(=O)(O)OP(=O)(O)OCC2OC(n3cnc4c(N)ncnc43)C(O)C2O)C(O)C1O (stereo not shown) [AP6A, di-adenosine hexaphosphate] | dose-dependent | ~0.3
O=c1ccn(C2OC(COP(=O)(O)OP(=O)(O)O)CC2O)c(=O)[nH]1 (stereo not drawn) [d-UDP] | not so strong | 
